Test results reported in US6365178B1, “Method of making pressure sensitive adhesive matrix patches for transdermal drug delivery using hydrophilic salts of drugs and hydrophobic pressure sensitive adhesive dispersions” (priority 1996, dated 2002).
Structures can show the parent of a compound that is named as a salt. One block for each compound: values may come before it.

Columns and labels:
[1] = Visual/microscopic observation of matrix films for drug crystals after preparation and on storage (physical stability); type: physicochemical; settings: for Drug crystals in dried films: organic solvent-based adhesives MA-24, DUROTAK 2979
Experimental: As used herein, “physical stability” of a drug in a matrix patch includes the lack of recrystallization of the drug in the dried adhesive layer of the patch.
Pressure sensitive adhesive matrix systems described herein were prepared as follows. First, the solids content of a water-based or solvent-based adhesive in liquid form was determined by placing a known weight of liquid in a weighed aluminum dish and evaporating the solvents overnight in a 70° C. convection oven. The content of solid adhesive in the liquid was calculated by dividing the adhesive solid weight after drying by the initial total liquid weight. In some cases, the polyisobutylene (PIB) adhesives were prepared from polyisobutylene solids. The solid PIB was first dissolved in heptane to achieve a final solid content of about 30% by weight, and then the exact solid content was determined as described above. Next, a weighed quantity of adhesive liquid was added to a glass bottle, and the solid adhesive weight was calculated from the known solid fraction of the given adhesive liquid. The drug substance (hydrophilic salt or free drug form) was weighed and added to the adhesive solution in a quantity necessary to achieve a selected dry matrix film composition. The liquid containing the adhesive polymer drug substance was then mixed overnight. […] After mixing, approximately 8 ml of the solution was dispensed on a silanized polyester release liner and film cast using a casting knife with a gap size appropriate to achieve a final dried thickness of approximately 0.05-0.1 mm. The cast was dried in a 70° C. convection oven for 15-30 minutes to yield a dried matrix onto which an 0.08 mm thick polyethylene backing film was laminated. These matrix systems were then used to conduct in vitro skin flux experiments as described below. […]
The systems manufactured with the salt and the water-based adhesive dispersions were stored at room temperature and examined using optical microscopy at 100× magnification for the presence of drug crystals.

[2] = Dissolution of drug substance in liquid adhesive or solvent during matrix preparation; type: physicochemical; settings: for Dissolution in organic solvent-based adhesives / Dissolution in water-based adhesive dispersions: Example 1, 5% (w/w) in dried film; for Dissolution in organic solvent-based adhesives: MA-24, DUROTAK 2979; for Dissolution in water-based adhesive dispersions: PIB-500, NACOR 72-9965
Experimental: Pressure sensitive adhesive matrix systems described herein were prepared as follows. First, the solids content of a water-based or solvent-based adhesive in liquid form was determined by placing a known weight of liquid in a weighed aluminum dish and evaporating the solvents overnight in a 70° C. convection oven. The content of solid adhesive in the liquid was calculated by dividing the adhesive solid weight after drying by the initial total liquid weight. In some cases, the polyisobutylene (PIB) adhesives were prepared from polyisobutylene solids. […] Next, a weighed quantity of adhesive liquid was added to a glass bottle, and the solid adhesive weight was calculated from the known solid fraction of the given adhesive liquid. The drug substance (hydrophilic salt or free drug form) was weighed and added to the adhesive solution in a quantity necessary to achieve a selected dry matrix film composition. The liquid containing the adhesive polymer drug substance was then mixed overnight. […] The cast was dried in a 70° C. convection oven for 15-30 minutes to yield a dried matrix onto which an 0.08 mm thick polyethylene backing film was laminated. These matrix systems were then used to conduct in vitro skin flux experiments as described below.

[3] = In vitro skin flux, modified Franz non-jacketed diffusion cells; type: in vitro ADME, human; settings: Example 6, DURO-TAK 2852 patch
Experimental: In vitro skin flux studies were conducted using human cadaver epidermal membrane in modified Franz non-jacketed diffusion cells. […] This method involves the exposure of the fullthickness skin to water at 60° C. for 60 seconds. After this period, the epidermal membrane was gently peeled from the dermis and stored in aluminum foil at −5 ° C. Prior to skin permeation experiments, the silanized release liner was removed from the adhesive matrix system, and the adhesive was affixed to the stratum corneum side of the thawed epidermal membrane, which was then cut to an appropriate size and placed between the two halves of the diffusion cell with the stratum corneum facing the donor compartment.
The receiver compartment was filled with water or an aqueous buffer appropriate to maintain sink conditions for the drug. All receiver media included 0.02% (w/w) sodium azide to inhibit bacterial growth. The diffusion cell was placed in a temperature controlled circulating water bath calibrated to maintain the surface temperature of the skin at 32° C. The receiver compartment was constantly stirred by a magnetic stir bar in the receiver compartment agitated by a magnetic stirring module placed under the water bath. At predetermined sampling intervals, the entire contents of the receiver compartment were collected for drug quantitation, and the receiver compartment was filled with fresh receiver solution, taking care to eliminate any air bubbles at the skin/solution interface.
The cumulative amount of drug permeated per unit area at any time t (Qt, μg/cm^2) was determined according to the following equation: [formula]
where Ct (μg/cm^3) is the concentration of the receiver compartment at sample time t (hours), V is the volume of the receiver compartment of the diffusion cell (6.3 cm^3), and A is the diffusional area of the cell (0.64 cm^2).

[4] = 5% (w/w) drug in Lord PIB-500 (water-based PIB) matrix, room temperature, microscopic
[5] = Example 2, NACOR 72-9965, 1% or 2% (w/w)
[6] = Example 2, TSR and DURO-TAK 2516, 1% or 2% (w/w)
[7] = Example 7, TSR, equivalent to 1% or 2% (w/w) diclofenac sodium
[8] = Example 5, NACOR 72-9965, 1% (w/w)
[9] = Example 5, TSR, equivalent to 1% (w/w) tromethamine salt
[10] = Example 8, Nacor 72-9965 with 5.0% Kollidon 90F, 12%

- Observations: drug crystals ([1]; 10% (w/w) in TSR (organic solvent-based acrylic), 59 weeks of storage at 40° C./75% RH, microscopic): Crystals were observed
Compound: CC(C)(C)NCC(O)c1ccc(O)c(CO)c1 (stereo not drawn) [Albuterol Free Base, albuterol]

Compound: O=C1CC2(CCCC2)CC(=O)N1CCCCN1CCN(c2ncccn2)CC1 [Buspirone Free Base, buspirone]
- Observations: crystals form within [1, 4]: Crystals form within 3 days
- Observations: crystals form within ([1]; 5% (w/w) drug in MA-24 (organic solvent-based PIB) matrix, room temperature, microscopic): Crystals form within 11 days
- Drug crystals in dried films ([1]; Example 1, 5% (w/w)): visibly homogeneous and free from drug crystals
- Recrystallization of buspirone in laminate ([1]; PIB adhesive (MA-24)/buspirone free base/isocetyl alcohol 86/1.5/12.5% (w/w), room temperature and 40° C./70%RH for 3 weeks, microscopic): No recrystallization of buspirone occurred
- Dissolution in organic solvent-based adhesives [2]: dissolved readily
- Dissolution in water-based adhesive dispersions [2]: water insoluble

Compound: O=C1CC2(CCCC2)CC(=O)N1CCCCN1CCN(c2ncccn2)CC1 [Buspirone HCl, buspirone hydrochloride]
- Observations: no crystals observed after [1, 4]: No crystals observed after 7 weeks
- Observations: drug crystals ([1]; 5% (w/w) drug in MA-24 (organic solvent-based PIB) matrix, immediately after preparation): crystals present
- Drug crystals in dried films ([1]; Example 1, 5% (w/w), hydrochloride): filled with drug crystals
- Drug crystals in dried film ([1]; Example 1, water-based adhesive dispersions PIB-500, NACOR 72-9965, 5% (w/w)): no crystals were found
- Drug crystals in dried adhesive matrix [1, 5]: visibly free of drug crystals
- Drug crystals in final dried casts [1, 6]: contained visible solid drug crystals
- Drug crystals in laminate ([1]; PIB adhesive (MA-24)/buspirone hydrochloride/isocetyl alcohol 86/1.5/12.5% (w/w), naked eye and microscopic): filled with buspirone crystals
- Results: buspirone crystals in resulting cast ([1]; Table 6, Chloroform): cast contained extensive buspirone crystals.
- Results: buspirone crystals in resulting cast ([1]; Table 6, Ethyl acetate): resulting cast contained extensive buspirone crystals.
- Results: casting of mixture ([1]; Table 6, Methanol, adhesive formed a gel-like ball): impossible to cast
- Results: buspirone crystals in resulting cast ([1]; Table 6, Toluene): contained extensive buspirone crystals.
- Results: buspirone crystallization in resulting cast ([1]; Table 6, Water, buspirone only in water-rich phase): extensively within 24 hours after casting.
- Dissolution in organic solvent-based adhesives ([2]; hydrochloride): did not dissolve
- Dissolution in water-based adhesive dispersions ([2]; hydrochloride): dissolved readily
- Dissolution in water-based adhesive dispersion [2, 5]: dissolved completely
- Dissolution in organic solvents of solvent-based adhesives [2, 6]: did not dissolve completely
- Dissolution in acetone ([2]; Example 3, 0.70 g in 9.2 g acetone): did not completely dissolve
- Dissolution in acetone/isocetyl alcohol mixture ([2]; Example 3, 0.70 g, 9.2 g acetone, 6.1 g isocetyl alcohol): did not completely dissolve
- Dissolution in acetone/isocetyl alcohol/PIB adhesive mixture ([2]; Example 3, blended with MA-24 organic solvent-based PIB adhesive): did not completely dissolve
- Results: dissolution in solvent and in solvent/isocetyl alcohol/PIB adhesive mixture ([2]; Table 6, Acetone 12.0 g, 0.7 g drug): Buspirone hydrochloride (0.7 g) did not dissolve in
- Results: effect of addition of solvent solution PIB adhesive ([2]; Table 6, Chloroform): resulted in precipitation of buspirone, and the resulting
- Results: dissolution in solvent and solvent/isocetyl alcohol mixture ([2]; Table 6, Chloroform 12.0 g, 0.7 g drug): Buspirone hydrochloride (0.7 g) dissolved in chloroform
- Results: dissolution in solvent and in solvent/isocetyl alcohol/PIB adhesive mixture ([2]; Table 6, Ethyl acetate 12.0 g, 0.7 g drug): Buspirone hydrochloride (0.7 g) did not dissolve in
- Results: behaviour of solvent/isocetyl alcohol/PIB adhesive mixture ([2]; Table 6, Methanol): phase separated
- Results: dissolution in solvent ([2]; Table 6, Methanol 12.0 g, 0.7 g drug): Buspirone hydrochloride (0.7 g) dissolved in methanol
- Results: dissolution in solvent and in solvent/isocetyl alcohol/PIB adhesive mixture ([2]; Table 6, Toluene 12.0 g, 0.7 g drug): Buspirone hydrochloride (0.7 g) did not dissolve in
- Results: behaviour of solvent/isocetyl alcohol/adhesive solution ([2]; Table 6, Water): phase separated. The resulting cast contained distinct
- Results: dissolution in solvent ([2]; Table 6, Water 1.5 g, 0.7 g drug): Buspirone hydrochloride (0.7 g) dissolved in water

- Drug crystals in dry film ([1]; Example 8, TSR, 12% (w/w), visible and microscopic): free from drug crystals
- Dissolution in organic solvents ([2]; Example 8, TSR, 12% (w/w)): dissolved readily
Compound: CC(=O)CC(c1ccccc1)c1c(O)c2ccccc2oc1=O (stereo not drawn) [Warfarin free drug, warfarin]

- Drug crystals in dried matrix ([1]; Example 10, water-based PIB 500/BUTYL 100 (Lord), 2% (w/w)): visibly free of drug crystals
Compound: Clc1cccc(Cl)c1N=C1NCCN1 [clonidine HCl]

- Drug crystals in dry matrix film ([1]; Example 10, VISTANEX MM L-100/LM-MH PIB blend, equivalent to 2% (w/w) HCl salt): free from drug crystals
- Dissolution in organic solvent solution ([2]; Example 10, VISTANEX MM L-100/LM-MH PIB blend in organic solvents, equivalent to 2% (w/w) HCl salt): dissolved readily
Compound: Clc1cccc(Cl)c1N=C1NCCN1 [clonidine free base, clonidine]

- Drug crystals in dried matrix [1, 7]: visually free of drug crystals
- Dissolution in organic solvent system [2, 7]: completely dissolved
Compound: O=C(O)Cc1ccccc1Nc1c(Cl)cccc1Cl [diclofenac free acid, diclofenac]

- Drug crystals in dried matrix [1, 7]: contained crystallized drug
- Dissolution in organic solvent system [2, 7]: not sufficiently soluble
Compound: O=C(O)Cc1ccccc1Nc1c(Cl)cccc1Cl [diclofenac sodium]
- Drug crystals in dried matrices ([1]; Example 7, water-based NACOR 72-9965 and ROBOND PS20, 1% or 2% (w/w)): physically stable and visually free of drug crystals

- Drug crystals in dried matrix [1, 8]: free of drug crystals
- Drug crystals in dried matrix [1, 9]: contained crystallized drug
- Average cumulative amount of ketorolac released after 24 hours ([3]; 10% ketorolac on free acid basis, 8% enhancer (propylene glycol/isopropyl myristate)): 171.6±49.0 μg/cm^2
- In vitro skin flux of ketorolac ([3]; 10% ketorolac on free acid basis, 8% enhancer (propylene glycol/isopropyl myristate), Mean±SD, n=2/10 skins/diffusion cells): 7.5±2.2 μg/cm^2/h
- Ketorolac flux as % of the flux observed with the system prepared with the free acid ([3]; 14.9% ketorolac tromethamine): 30%
- Dissolution in water/emulsion system [2, 8]: dissolved completely
- Dissolution in organic solvent system [2, 9]: did not completely dissolve
- Dissolution in enhancer-acrylic adhesive solution ([2]; Example 6, DURO-TAK 2852 with propylene glycol/isopropyl myristate, 10% ketorolac on free acid basis): does not dissolve
Compound: O=C(c1ccccc1)c1ccc2n1CCC2C(=O)O (stereo not drawn) [ketorolac tromethamine]
- Drug crystals in adhesive matrix/laminate ([1]; Example 6, DURO-TAK 2852 with propylene glycol/isopropyl myristate, 10% ketorolac on free acid basis, visual and microscopic): visibly cloudy and extensive crystals were visible

Compound: CCN(CC)CC(=O)Nc1c(C)cccc1C [lidocaine HCl]
- Drug crystals in dried matrix ([1]; Example 9, DURO-TAK 2516, equivalent to 1% (w/w) HCl salt, HCl): contains visible solid drug crystals
- Drug crystals in dried matrix ([1]; Example 9, NACOR 72-9965, 1% (w/w)): physically stable and free of drug crystals

Compound: CCN(CC)CC(=O)Nc1c(C)cccc1C [lidocaine free base, lidocaine]
- Drug crystals in dried matrix ([1]; Example 9, DURO-TAK 2516, equivalent to 1% (w/w) HCl salt): visibly free of drug crystals

- Dissolution in water-based dispersion [2, 10]: dissolved readily
Compound: CC(=O)CC(c1ccccc1)c1c(O)c2ccccc2oc1=O (stereo not drawn) [sodium warfarin, warfarin sodium]
- Drug crystals in dry matrix [1, 10]: free from visible and microscopic drug crystals

- Observations: drug crystals ([1]; 10% (w/w) in NACOR 9965 (water-based acrylic) with 5% KOLLIDON 90F, 59 weeks of storage at 40° C./75% RH, microscopic): No crystals were observed
Compound: albuterol sulfate
